# Assay results taken from patent US10370336B2, “Phenyl-cyanoquinolinone PDE9 inhibitors” (Merck Sharp & Dohme Corp., priority 2015, dated 2019).
# Molecular target: human PDE9 enzyme (PDE9A2) (Homo sapiens (Human), UniProt O76083)
# Conditions: read-out: PDE9 IMAP Ki; IMAP FP assay, FAM-cGMP substrate 50 nM, apparent inhibition constant
# Excerpt: Dose-inhibition profiles for each compound were characterized by fitting the mP data to a four-parameter equation given below.
# Sequence of human PDE9 enzyme (PDE9A2) (O76083 other isoform, or with tags, fused parts or gaps): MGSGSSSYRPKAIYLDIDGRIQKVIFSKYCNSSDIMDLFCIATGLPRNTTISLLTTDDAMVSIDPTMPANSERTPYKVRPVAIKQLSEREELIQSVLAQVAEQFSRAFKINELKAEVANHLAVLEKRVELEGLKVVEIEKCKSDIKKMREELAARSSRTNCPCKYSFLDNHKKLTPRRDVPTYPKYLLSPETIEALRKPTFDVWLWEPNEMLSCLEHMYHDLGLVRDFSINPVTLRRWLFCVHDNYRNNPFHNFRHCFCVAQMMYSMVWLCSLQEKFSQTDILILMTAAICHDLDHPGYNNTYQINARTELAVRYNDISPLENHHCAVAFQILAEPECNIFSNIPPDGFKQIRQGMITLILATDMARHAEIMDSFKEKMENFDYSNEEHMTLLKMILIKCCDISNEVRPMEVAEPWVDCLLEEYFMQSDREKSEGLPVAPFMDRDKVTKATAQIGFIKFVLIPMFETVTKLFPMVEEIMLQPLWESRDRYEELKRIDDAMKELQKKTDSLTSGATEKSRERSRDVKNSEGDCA
smiles,measurement,value
"Cc1ccc(-c2c(C#N)c(=O)[nH]c3ccccc23)cc1 [Example 1-9, 2-oxo-4-(p-tolyl)-1H-quinoline-3-carbonitrile]",Ki,8.9 nM
